Columns and labels:
[1] = molecular target: Glutamate receptor 1 (Rattus norvegicus) (UniProt P19490); experiment: Binding affinity towards GluR1 receptor from rat brain
[2] = molecular target: Glutamate receptor 1 (Rattus norvegicus) (UniProt P19490); experiment: The potency at recombinant rat AMPA-R was measured on GluR1 receptor expressed in Xenopus Laevis oocytes

Glutamate receptor 1 (Rattus norvegicus), sequence (P19490 whole entry, looked up): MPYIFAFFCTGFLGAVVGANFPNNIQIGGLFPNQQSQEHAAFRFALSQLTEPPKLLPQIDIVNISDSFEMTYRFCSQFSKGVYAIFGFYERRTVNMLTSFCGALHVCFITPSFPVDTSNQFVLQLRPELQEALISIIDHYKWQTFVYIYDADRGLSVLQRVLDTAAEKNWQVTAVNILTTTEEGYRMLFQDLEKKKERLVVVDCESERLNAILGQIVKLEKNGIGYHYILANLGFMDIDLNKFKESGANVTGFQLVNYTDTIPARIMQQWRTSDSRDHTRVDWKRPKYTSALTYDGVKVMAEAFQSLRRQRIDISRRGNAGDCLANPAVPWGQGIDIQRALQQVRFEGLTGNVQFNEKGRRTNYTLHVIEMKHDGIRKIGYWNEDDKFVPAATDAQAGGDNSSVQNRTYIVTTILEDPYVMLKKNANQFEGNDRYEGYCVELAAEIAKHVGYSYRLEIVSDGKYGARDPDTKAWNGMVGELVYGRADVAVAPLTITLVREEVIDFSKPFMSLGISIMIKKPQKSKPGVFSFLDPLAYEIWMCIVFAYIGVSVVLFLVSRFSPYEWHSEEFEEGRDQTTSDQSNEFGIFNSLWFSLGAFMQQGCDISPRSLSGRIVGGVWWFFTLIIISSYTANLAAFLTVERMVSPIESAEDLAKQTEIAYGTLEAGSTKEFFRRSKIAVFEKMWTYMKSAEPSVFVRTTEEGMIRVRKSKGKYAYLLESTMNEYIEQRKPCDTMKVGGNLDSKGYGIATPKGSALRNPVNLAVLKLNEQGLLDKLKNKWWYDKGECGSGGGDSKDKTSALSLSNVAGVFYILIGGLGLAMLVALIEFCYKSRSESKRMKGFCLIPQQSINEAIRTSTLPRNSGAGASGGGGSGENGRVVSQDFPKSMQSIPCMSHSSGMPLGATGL

Work on N[C@@H](Cn1c2c(c(=O)[nH]c1=O)CCC2)C(=O)O [2-Amino-3-(2,4-dioxo-2,3,4,5,6,7-hexahydro-cyclopentapyrimidin-1-yl)-propionic acid] yielded a Ki [1] of 0.109 µM and an EC50 [2] of 24.9 µM.

— BindingDB's records for doi:10.1021/jm015552m (Universita' Degli Studi Di Siena, 2001)
